Data from patent US10702568B2, “Compositions containing silymarin and sulfoalkyl ether cyclodextrin and methods of using the same” (UNIVERSITY OF KANSAS, priority 2015, dated 2020).
In brackets after ≈: the same amount, converted by molar mass.

Columns and labels:
Type in all cases: physicochemical
[1] = Solubility of silymarin components in water (Example 10, HPLC); conditions: water; component of Indena silymarin extract, HPLC; read-out: Solubility in water
Procedure: (§1) Silymarin components including taxifolin, silydianin, silychristin, silybin A, silybin B, isosilybin A, and isosilybin B were tested for their solubility in water and also for their Log D value. The silymarin extract was obtained from Indena® (Indena Code: 9065110). The HPLC system consisted of Waters system equipped with performance PLUS inline degasser along dual λ absorbance detector set at 288 nm. The chromatographic separation of silymarin constituents was achieved on a Symmetry Shield RP18 column (150×4.6 mm, 5 μm); which was maintained at ambient room temperature conditions. The binary mobile phase system consisted of reservoir A (methanol: 10 mM ammonium acetate pH 5 [65:35 v/v]) and reservoir B (10 mM ammonium acetate, pH 5) were run as per gradient program (0-1.9 min: 25% A and 75% B; 2.0-14.9 min: 80% A and 20% B and 15-37.9 min: 80% A and 20% B and 38-40 min: 25% A and 75% B). The flow rate was 1 mL/min throughout the analytical run.

[2] = Log D of silymarin components (octanol/buffer, HPLC); conditions: octanol/universal buffer pH 7.4, 16 h shaking at room temperature; read-out: Log D (7.4 pH)
Procedure: as §1
To determine the Log D of silymarin components, the silymarin extract (2 mg) was dissolved in 100% DMSO and then used for the experiment. Different buffers between pH ranges of 1.0 to 12 were prepared by using universal buffer stock containing 25 mM hydrochloric acid, 25 mM citric acid, 25 mM phosphoric acid, 30 mM boric acid and 20 mM sodium chloride. About 45 mL of universal buffer was titrated with Sodium hydroxide (5M) to obtain desired pH. A 10 μL of silymarin stock solution was spiked into Eppendorf tube containing 500 μL each of a buffer and presaturated octanol. This mixture was vortexed for 5 minutes and kept for shaking at room temperature. After 16 h, the mixture was centrifuged at 10,000 RPM for 30 minutes. After centrifugation buffer and octanol phases were separated, both phases were diluted with acetonitrile (1:1) and subject to HPLC analysis for quantitation of individual components of silymarin. The Log D values of each compound at a pH was determined by Log D (pH)=Log [Organic (peak area)/Aqueous (peak area)].

[3] = Mutual phase solubility study of Silymarin-CAPTISOL® complex (method A, method B)
Procedure: Two methods, method A and method B, were used to prepare the silymarin-CAPTISOL® complexes and the phase solubility of the various components in the complexes were measured and compared. The silymarin extract was obtained from Indena® (Indena Code: 9065110).
In method A, the Silymarin-CAPTISOL® complex was prepared through a hot extraction method. […] The filtrates were analyzed using HPLC for Taxifolin, Silychristin, Silydianin, Silybin A, Silybin B, Isosilybin A and Isosilybin B after appropriate dilution.
In method B, the Silymarin-CAPTISOL® complex was prepared by combining the CAPTISOL® and silymarin at ambient temperature: 120 mg of the extract was incorporated in 0 10, 20, 40, 60, 80 and 100 mM concentrations of CAPTISOL® solution in water. These samples were shook at room temperature for 3 days. At equilibrium, samples were centrifuged at 10,000 RPM and filtered using Millipore (0.22 μm) syringe filter. The filtrates were analyzed using HPLC for Taxifolin, Silychristin, Silydianin, Silybin A, Silybin B, Isosilybin A and Isosilybin B after appropriate dilution.
The solubility of the Silymarin-CAPTISOL® complexes prepared using method A and method B were measured.

SMILES: O=C1c2c(O)cc(O)cc2O[C@H](c2ccc(O)c(O)c2)[C@H]1O [Taxifolin]
- solubility [1]: 550 µg/mL (≈ 1810 µM)
- logD at 16 h [2]: 1.35
- number of fold increase in solubility ([3]; CAPTISOL® 10 mM, Method A (hot extraction 70-75° C., 60 minutes)): 1.95 fold
- number of fold increase in solubility ([3]; CAPTISOL® 10 mM, Method B (ambient temperature, 3 days)): 1.97 fold
- number of fold increase in solubility ([3]; CAPTISOL® 20 mM, Method A (hot extraction 70-75° C., 60 minutes)): 3.32 fold
- number of fold increase in solubility ([3]; CAPTISOL® 20 mM, Method B (ambient temperature, 3 days)): 3.06 fold
- number of fold increase in solubility ([3]; CAPTISOL® 40 mM, Method A (hot extraction 70-75° C., 60 minutes)): 3.54 fold
- number of fold increase in solubility ([3]; CAPTISOL® 40 mM, Method B (ambient temperature, 3 days)): 3.39 fold
- number of fold increase in solubility ([3]; CAPTISOL® 60 mM, Method A (hot extraction 70-75° C., 60 minutes)): 4.26 fold
- number of fold increase in solubility ([3]; CAPTISOL® 60 mM, Method B (ambient temperature, 3 days)): 3.48 fold
- number of fold increase in solubility ([3]; CAPTISOL® 80 mM, Method A (hot extraction 70-75° C., 60 minutes)): 4.51 fold
- number of fold increase in solubility ([3]; CAPTISOL® 80 mM, Method B (ambient temperature, 3 days)): 3.47 fold
- number of fold increase in solubility ([3]; CAPTISOL® 100 mM, Method A (hot extraction 70-75° C., 60 minutes)): 4.77 fold
- number of fold increase in solubility ([3]; CAPTISOL® 100 mM, Method B (ambient temperature, 3 days)): 3.72 fold
